Values quoted from earlier work in US11414421B2, “Process for the preparation of ribociclib succinate and its novel crystalline forms thereof” (NATCO PHARMA LTD, priority 2018, dated 2022).
Where two headings read alike, the source gives them in different places.

absorbs moisture (relative humidity 0-90-0% RH): up to 2.0% | absorbs moisture (second value, printed as 0-90-0% RH): up to 0.5%
SMILES: CN(C)C(=O)c1cc2cnc(Nc3ccc(N4CCNCC4)cn3)nc2n1C1CCCC1.O=C(O)CCC(=O)O [Ribociclib succinate, 7-cyclopentyl-N,N-dimethyl-2-{[5-(piperazin-1-yl)pyridin-2-yl]amino}-7H-pyrrolo [2,3-d]pyrimidine-6-carboxamide succinate (1/1)]
